Assay results published in patent US20100212218A1, “5-(SUBSTITUTED METHYL) 2-METHYLFURAN” (FURANIX TECHNOLOGIES B.V., priority 2007, published 2010).

Experiment: Fuel solubility: miscibility in blends with commercial diesel
Assay type: physicochemical
Excerpt: Fuel solubility is a primary concern for diesel fuel applications. Not all highly polar oxygenates have good solubility in the current commercial diesel fuels.

[1] = all blend ratios with commercial diesel

With CCOCc1ccc(C)o1 [5-(ethoxymethyl)-2-methylfuran] the “miscibility with commercial diesel” value [1] was “miscible in all blend ratio's”.

With Cc1ccc(COC(C)(C)C)o1 [5-(tertbutoxymethyl)-2-methylfuran] the “miscibility with commercial diesel” value [1] was “miscible in all blend ratio's”.

For CCOCc1ccc(C=O)o1 [EMF, 5-(ethoxymethyl)furfural], the “miscibility with commercial diesel” value (5 vol % blend with commercial diesel) was “completely miscible”, the “miscibility with commercial diesel” value (25 vol % blend with commercial diesel) was “phase separation occurs” and the “miscibility with commercial diesel” value (40 vol % blend with commercial diesel) was “phase separation occurs”.
